Where two headings read alike, the source gives them in different places.
Tests used:
human NK1 receptor = target: T1, human NK1 receptor (Homo sapiens, UniProt P25103); experiment: Human NK1 receptor binding assay (3H-Sar9-SP, hNK1-CHO cells); conditions: room temperature 60 minutes
T1 construct: expressed in transfected cells; host or cells: CHO cells (hNK1-CHO)
Experimental: A supernatant liquid was removed from an hNK1-CHO cell incubation flask in a confluent state, trypsin (0.25%)-EDTA (1 mmol/L) (Gibco) was added thereto and the cells were exfoliated and recovered. After they were washed with a buffer A (pH 7.5; 50 mmol/L Tris hydrochloride 50 mmol/L, 150 mmol/L NaCl and 0.02% BSA) for one time (at […] for 5 minutes), cell numbers were adjusted and re-floated on a buffer for assay {a buffer A to which 40 μg/mL bacitracin (Sigma), 4 μg/mL leupeptin (Sigma), 4 μg/mL chymostatin (Sigma) and 4 μg/mL phosphoramidon (Sigma) were added}. The hNK1-CHO cells (100 μL) were placed in a tube (TPX-12, Maruemu) in which 300 μL of the buffer for assay was charged so as to make cells 10^5 per tube, 50 μL of a hot solution (^3H-Sar^9-SP, final concentration: […]) and 50 μL of a substance to be tested were added (a system of 500 μL), stirred and made to react at room temperature for 60 minutes. After completion of the reaction, it was filtered through a GF/B filter (25 mm diameter, Whatman) which was previously dipped in 0.1% polyethyleneimine p-70 (Wako Pure Chemical), washed with the buffer A (4 mL each for three times), placed in a vial and dried at 60° C. for one night. After drying, 10 mL of a scintillator (AL-1, toluene base, Dojindo) was added thereto and dpm was measured by a liquid scintillation counter (for 5 minutes/vial).
With regard to a nonspecific binding, it was defined as the dpm when 10 μmol/L of the substance P was added instead of the substance to be tested. The experiment was conducted in duplicate and at least three experiments were repeated. IC50 value was calculated using a probit method (statistic library II, Yukms).

[1] = Pharmacokinetic test in blood by a single oral administration to guinea pigs; type: in vivo; conditions: 100 mg/kg orally, plasma; for AUC(0-t): read-out: AUC 0-24 h; for half-life: read-out: t½ (converted)
Experimental: Male guinea pigs of a Hartley strain (SPF, Nippon SLC) were purchased and subjected to a preliminary breeding for one week and the normally grown ones were fasted for one night and used for the test. The compound of the present invention was suspended in 1 g/dL methyl cellulose solution and 100 mg/kg was orally administered in an administering dose of 5 mL/kg. After 0.5, 1, 2, 4, 8 and 24 hour(s) from the oral administration, about 0.4 mL of blood was collected from the vein of median of foreleg using a heparinized capillary. Plasma prepared by its centrifugation (at 12,000 rpm for 10 minutes) was stored at −80° C. until the measurement. Measurement of the concentration in blood was conducted by a UV-detecting HPLC method.

NK1 receptor = target: T2, NK1 receptor (Cavia porcellus, UniProt P30547); experiment: Test for transfer into cerebral center of guinea pigs ([3H]substance P binding in striatum homogenate after oral dosing); type: in vivo; conditions: 4 hours after oral administration of 20 mg/mL at 5 mL/kg
T2 construct: the brain was excised and the striatum was collected; from tissue; host or cells: striatum of male Hartley guinea pigs (Nippon SLC), homogenate after oral dosing
T2 sequence (P30547 whole entry): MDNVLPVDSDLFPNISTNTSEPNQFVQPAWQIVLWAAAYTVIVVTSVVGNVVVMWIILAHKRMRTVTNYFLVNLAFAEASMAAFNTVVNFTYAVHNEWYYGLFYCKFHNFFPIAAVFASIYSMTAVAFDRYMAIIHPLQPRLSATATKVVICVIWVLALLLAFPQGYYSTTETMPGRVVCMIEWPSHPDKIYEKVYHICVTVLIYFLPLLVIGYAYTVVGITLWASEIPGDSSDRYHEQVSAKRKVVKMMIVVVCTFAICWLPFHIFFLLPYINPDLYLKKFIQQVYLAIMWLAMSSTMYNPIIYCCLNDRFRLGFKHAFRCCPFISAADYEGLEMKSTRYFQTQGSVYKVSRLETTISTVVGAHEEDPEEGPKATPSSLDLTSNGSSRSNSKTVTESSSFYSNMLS
Experimental: Male guinea pigs of a Hartley strain (four weeks age, SPF, Nippon SLC) were purchased, subjected to a preliminary breeding for not shorter than one week, fasted for one night and used for the test where one group comprised eight guinea pigs. As a substance to be tested, the Compound 21 which is the compound of the present invention was suspended in 1% methyl cellulose […] to make 20 mg/mL. As a substance for comparison, LY-303870 [(R)-1-[N-(2-methoxybenzyl)acetylamino]-3-(1H-indol-3-yl)-2-[N-(2-(4-(piperidin-1-yl)piperidin-1-yl)acetyl)amino]propane] was dissolved in a 1% aqueous solution of MC to make 20 mg/mL.
A test was conducted in accordance with a method of Iyengar, et al. Thus, a 1% aqueous solution of MC and the above-prepared solution of the test substance were orally administered in an administering dose of 5 mL/kg, then the animals were killed by carbon dioxide gas after 4 hours from administration of the test substance solution and after 1 hour from administration of the 1% aqueous MC solution and the comparative substance solution, the brain was excised and the striatum was collected. After measuring its wet weight, 50 mmol/L Tris-HCl (pH 7.5) was added thereto so as to make it 40 mg/mL followed by homogenizing for 10 seconds. […]

[2] = male, Hartley, guinea pig, po, read-out: Cmax
[3] = male, Hartley, guinea pig, po, read-out: Tmax

T1 sequence (P25103 whole entry): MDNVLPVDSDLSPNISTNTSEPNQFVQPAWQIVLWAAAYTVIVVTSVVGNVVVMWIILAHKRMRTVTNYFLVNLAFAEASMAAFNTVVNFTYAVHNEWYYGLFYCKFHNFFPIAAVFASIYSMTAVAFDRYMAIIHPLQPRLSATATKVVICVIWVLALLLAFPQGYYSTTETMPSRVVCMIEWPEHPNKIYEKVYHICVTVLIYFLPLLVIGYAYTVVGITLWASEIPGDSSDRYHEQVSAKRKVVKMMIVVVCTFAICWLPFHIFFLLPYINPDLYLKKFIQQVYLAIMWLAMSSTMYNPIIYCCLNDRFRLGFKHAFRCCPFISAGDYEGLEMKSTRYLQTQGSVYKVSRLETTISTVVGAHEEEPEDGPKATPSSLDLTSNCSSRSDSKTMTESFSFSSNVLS

| IC50 (human NK1 receptor) | Cmax [1] | Tmax [1] | t½ [1] | specific binding of [3H]substance P (NK1 receptor; guinea pig striatum homogenate, control group 1083.4±95.5 dpm) | occupying rate of the NK1 receptor in the brain (NK1 receptor; guinea pigs, mean value ±standard deviation) | AUC(0-t) ([1]; male, Hartley, guinea pig, po) | Cmax [1, 2] | Tmax [1, 3] | half-life ([1]; male, Hartley, guinea pig, po) | Compound |
| --- | --- | --- | --- | --- | --- | --- | --- | --- | --- | --- |
| 4 nM |  |  |  |  |  | 215 µg·h/mL | 16900 ng/mL | 4 h | 3 h | O=C(Cc1ccc[n+]([O-])c1)NCC(COCc1cc(C(F)(F)F)cc(C(F)(F)F)c1)c1ccc(F)cc1 (centres unmarked) [Compound 42, N-[3-(3,5-Bis(trifluoromethyl)benzyloxy)-2-(4-fluorophenyl)propyl]-2-(1-oxypyridin-3-yl)acetamide] |
| 9.4 nM |  |  |  |  |  | 103 µg·h/mL | 13800 ng/mL | 1 h | 3.4 h | O=C(CCc1cc[n+]([O-])cc1)NCC(COCc1cc(C(F)(F)F)cc(C(F)(F)F)c1)c1ccccc1 (centres unmarked) [Compound 51, N-[3-(3,5-Bis(trifluoromethyl)benzyloxy)-2-phenylpropyl]-3-(1-oxypyridin-4-yl)propionamide] |
| 56.4 nM |  |  |  |  |  | 19.7 µg·h/mL | 1700 ng/mL | 4 h | 8 h | Cl.O=C(NCC(COCc1cc(C(F)(F)F)cc(C(F)(F)F)c1)c1ccccc1)c1ccc(CN2CCCC2)cc1 (centres unmarked) [Compound 64, N-[3-(3,5-Bis(trifluoromethyl)benzyloxy)-2-phenylpropyl]-4-pyrrolidin-1-ylmethylbenzamide hydrochloride] |

Continued, compound first:

| Compound | IC50 (human NK1 receptor) | Cmax [1] | Tmax [1] | t½ [1] | specific binding of [3H]substance P (NK1 receptor; guinea pig striatum homogenate, control group 1083.4±95.5 dpm) | occupying rate of the NK1 receptor in the brain (NK1 receptor; guinea pigs, mean value ±standard deviation) | AUC(0-t) ([1]; male, Hartley, guinea pig, po) | Cmax [1, 2] | Tmax [1, 3] | half-life ([1]; male, Hartley, guinea pig, po) |
| --- | --- | --- | --- | --- | --- | --- | --- | --- | --- | --- |
| O=C(NCC(COCc1cc(C(F)(F)F)cc(C(F)(F)F)c1)c1ccc(F)cc1)c1cc[n+]([O-])cc1 (centres unmarked) [Compound 21, N-[3-(3,5-Bis(trifluoromethyl)benzyloxy)-2-(4-fluorophenyl)propyl]-1-oxyisonicotinamide] | 2.9 nM | 26900 ng/mL | 4 h | 3.2 h | 228.2±15.5 dpm | 79.9±1.4% |  |  |  |  |
| O=C(Cc1cc[n+]([O-])cc1)NCC(COCc1cc(C(F)(F)F)cc(C(F)(F)F)c1)c1ccc(F)cc1 (centres unmarked) [Compound 40, N-[3-(3,5-Bis(trifluoromethyl)benzyloxy)-2-(4-fluorophenyl)propyl]-2-(1-oxypyridin-4-yl)acetamide] | 7.3 nM |  |  |  |  |  | 279 µg·h/mL | 22800 ng/mL | 4 h | 4 h |
